Where two headings read alike, the source gives them in different places.
Experiments:
ATF4 = ATF4 protein levels by immunoblot in STHdh^Q7/7 cells; format: cell-based, murine; conditions: high MK-28 concentration
Method: STHdh^Q7/7 and STHdh^Q111/111 cells were treated with different concentrations of MK-28. The concentration range was chosen in accordance to previous studies with A4. Cells were lysed with PBS containing 1% Triton X-100, 0.5% Sodium deoxycholate with protease and phosphatase inhibitors cocktails. Cocktail 2 and 3 (Sigma) were added to the lysis buffer for detection of phosphorylated proteins and lysates were incubated on ice for 30 minutes, then centrifuged at 16,000xg for 30 minutes a 4 °C. […] Immunoblotting, detection by ECL and quantitation was done as described previously.

PERK-P = experiment: PERK phosphorylation shift by immunoblot in MEF cells; format: cell-based; conditions: 3 hours, Thap 2 μg/ml
CHOP mRNA = CHOP mRNA by qPCR in STHdh^Q7/7 and STHdh^Q111/111 cells; format: cell-based, murine; conditions: both cell types, qPCR vs GAPDH
Method: Total cell RNA was extracted with TRIzol reagent (Invitrogen) according to the manufacturer's instructions. Reverse transcription (RT) was performed with QuantaBio qScript cDNA synthesis kit. Real-time qPCR was carried out using a CFX Connect Real-Time PCR Detection System (BioRad) and the amplifications were done using the SYBR Green PCR Master Mix (pcrbio). Reactions were run in triplicates in three independent experiments. Housekeeping gene GAPDH was used as an internal control to normalize the variability of expression levels.

R6/2 HD mouse model [1] = experiment: Survival of R6/2 mice; format: in vivo
Method: All experimental procedures were approved by and conducted in strict compliance with the Institutional Animal Care and Use Committee of Tel Aviv University. Mice were kept in a 12/12-hour light/dark cycle with food and water ad libitum. […]. At three weeks mice were assessed for CAG repeat size using the following primer set: 5’-[…]-3′ and 5′-[…] G-3′. Following Jackson laboratories guidelines, wild type (WT) and TG littermates were kept combined in the same minimally-enriched cages (with cardboard rolls and gauze pads), and after week 8 water and mushed food were placed at the ground level for all the cages. Male mice treatment groups were coded and remained blind to the observers throughout the experiment. Power calculations determined that 16 mice per group was the minimum required to see at least a 20% increase (alpha 0.05, beta 0.2, power 80%) in motor performance and survival of R6/2 mice with MK-28 subcutaneous delivery compared to vehicle. Multiple endpoints were prospectively selected, consistent with the analyses we here report. Data collection was ended before signs of animal suffering or inability to thrive appear.
(§1) Alzet pumps model 1004 (Alzet, USA), with a rate of 0.11 µl/hour and 28 days effective compound delivery was used. MK-28 compound was dissolved in 1:1 DMSO/PEG400 and prepared to delivery subcutaneously 6 mg/kg MK-28 for toxicity studies (n = 8) or 1 mg/kg for therapeutic evaluation in R6/2 mice (n = 72). For toxicity studies mice receiving six times the therapeutic dose of MK-28 or vehicle were weighed every two days for two consecutive weeks. […]. Alzet pumps were implanted in 4 weeks old mice and MK-28 was administered at 1 mg/kg with continuous dosing for 28 days. […]

R6/2 HD mouse model [2] = experiment: Blood glucose levels; format: in vivo, mice; conditions: TG + MK-28
Method: For blood glucose measurements, blood samples from all the evaluated groups (n = 34) were obtained from the tail and measured with the Accu-Check glucose monitor (Roche Diagnostics, USA). Two independent glucose measurements were performed at the same hour 3 and 12 weeks after birth corresponding to the asymptomatic and symptomatic stages respectively. Glucose levels are expressed in mg/dl.

EIF2AK2 (PKR) = EIF2AK2 (PKR) (Homo sapiens, UniProt P19525); experiment: In vitro HotSpot kinase assay on PKR; format: biochemical
Chain of EIF2AK2 (PKR) (P19525 whole entry): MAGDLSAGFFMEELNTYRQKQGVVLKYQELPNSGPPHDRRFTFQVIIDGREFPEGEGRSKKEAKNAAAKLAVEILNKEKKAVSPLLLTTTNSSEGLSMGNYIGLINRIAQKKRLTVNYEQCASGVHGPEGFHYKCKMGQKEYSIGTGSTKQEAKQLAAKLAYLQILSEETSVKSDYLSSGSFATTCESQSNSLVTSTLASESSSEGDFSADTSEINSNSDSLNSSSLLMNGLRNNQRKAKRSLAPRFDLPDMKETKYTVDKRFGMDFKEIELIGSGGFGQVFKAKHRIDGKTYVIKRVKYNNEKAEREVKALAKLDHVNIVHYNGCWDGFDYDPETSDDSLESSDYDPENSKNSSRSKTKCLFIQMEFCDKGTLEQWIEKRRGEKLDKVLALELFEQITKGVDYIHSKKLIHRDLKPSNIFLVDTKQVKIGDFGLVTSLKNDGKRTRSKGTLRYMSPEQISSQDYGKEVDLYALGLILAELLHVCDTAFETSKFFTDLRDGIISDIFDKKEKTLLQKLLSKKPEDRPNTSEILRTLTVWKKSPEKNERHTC
Method: (§2) In vitro kinase assays with purified components and full kinase panel analysis was done at Reaction Biology Corp. (Malvern, PA, USA) using the HotSpot Kinase Assay. Reactions were performed for 20 min at room temp. using ^33P-ATP (Specific activity 10 μCi/μl) with 1 μM total ATP, 20 μM substrate and kinases in the nanomolar range in 20 mM Hepes (pH 7.5), 10 mM MgCl2, 1 mM EGTA, 0.02% Brij35, 0.02 mg/ml BSA, 0.1 mM Na3VO4, 2 mM DTT, 1% DMSO and other required factors depending on the assayed kinase.

[3] = Pharmacokinetics and BBB penetration after single IP injection; format: in vivo; conditions: mice, single IP 10 mg/kg
[4] = Body weight during therapeutic study (Alzet minipumps); format: in vivo, mice; conditions: 1 mg/kg subcutaneous minipump, 7 weeks after pump implantation
Method: as §1

PERK (EIF2AK3) = target: T1, PERK (EIF2AK3) (Homo sapiens, UniProt Q9NZJ5); experiment: In vitro HotSpot kinase assay on isolated PERK; format: biochemical; conditions: isolated PERK, 1 μM ATP; read-out: EC50 of PERK activation
T1 construct: GST; purchased Life technologies, Carlsbad, CA; host or cells: insect cells
T1 sequence (Q9NZJ5 536-1116): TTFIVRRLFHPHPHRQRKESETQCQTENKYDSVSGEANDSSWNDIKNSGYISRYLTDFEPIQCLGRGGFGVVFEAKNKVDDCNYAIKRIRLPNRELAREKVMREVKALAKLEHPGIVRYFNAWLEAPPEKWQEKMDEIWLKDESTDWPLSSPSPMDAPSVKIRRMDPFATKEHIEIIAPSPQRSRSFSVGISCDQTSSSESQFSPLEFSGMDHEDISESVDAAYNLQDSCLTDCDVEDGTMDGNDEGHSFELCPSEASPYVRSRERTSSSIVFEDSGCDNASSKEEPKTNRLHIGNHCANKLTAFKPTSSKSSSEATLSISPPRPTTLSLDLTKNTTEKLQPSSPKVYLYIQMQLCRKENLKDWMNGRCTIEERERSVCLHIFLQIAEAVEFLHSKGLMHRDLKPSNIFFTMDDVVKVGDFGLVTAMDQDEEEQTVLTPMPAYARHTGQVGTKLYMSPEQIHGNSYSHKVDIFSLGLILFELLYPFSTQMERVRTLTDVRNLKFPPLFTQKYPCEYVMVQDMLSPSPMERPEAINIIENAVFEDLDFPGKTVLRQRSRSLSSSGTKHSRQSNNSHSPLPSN
Method: as §2

[5] = R6/2 TG, 1 mg/kg subcutaneous 28 days

CN(/N=C\c1ccc(O)c(O)c1)c1nc(-c2ccccc2)cc(-c2ccccc2)n1 [MK-28]
increase of ATF4 protein levels (ATF4): up to 2.5 fold | PERK migration shift (PERK-P) (PERK-P): shift of part of the PERK population to a slower migration | increase of CHOP mRNA levels (CHOP mRNA): up to 10 fold | extension of median survival and death initiation (R6/2 HD mouse model [1]; 28-day treatment in young R6/2 mice): 10% | survival curve ratio (Gehan-Breslow-Wilcoxon test) (R6/2 HD mouse model [1]; 95% CI 0.7726 to 4.611): 1.887 | delay of death initiation (R6/2 HD mouse model [1]; [5]): 10 days | increase of median survival compared to controls (R6/2 HD mouse model [1]; [5]): 8 days | median survival (R6/2 HD mouse model [1]; [5]): 97 days | glucose increase ratio between disease stages (symptomatic vs asymptomatic) (R6/2 HD mouse model [2]): 109.60 ± 5.04% | effect on EIF2AK2 (PKR) activity (EIF2AK2 (PKR)): little or no effect | time of Cmax in plasma after injection [3]: 40 min | time of Cmax in the brain after injection [3]: 40 min | Kp ([3]; mouse, brain, read-out: AUC in the brain as % of that in the plasma): 0.22 | Cmax ([3]; mouse, brain, read-out: Cmax in the brain): 57 ng/g | half-life ([3]; mouse, brain, read-out: half-life in the brain): 80 min | Cmax ([3]; mouse, plasma, read-out: Cmax in plasma): 105 ng/mL | half-life ([3]; mouse, plasma, read-out: half-life in plasma): 30 min | weight, MK-28 vs vehicle [4]: no significant differences | EC50 (PERK (EIF2AK3)): 490 nM

From article PMC7181660, “A novel specific PERK activator reduces toxicity and extends survival in Huntington's disease models” (Scientific Reports, 2020)
